This is an account of results in patent US10703757B2, “Compounds and methods for CDK8 modulation and indications therefor” (Plexxikon Inc., priority 2016, dated 2020).

The structures appear in SMILES notation.

Test [1] concerns CDK8 (TCF/LEF luciferase reporter in HCT116 cells). The test is described as follows: Cell based TCF/LEF reporter assay (HCT116+TCF/LEF luciferase). The settings on record: Homo sapiens. An outline of the steps: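 HCT116 cells stably carrying a TCF/LEF-luciferase reporter (endogenous mutant β-catenin), seeded overnight, then exposed to serial compound dilutions for 24 h at 37 °C. Luminescence normalized to CellTiter-Fluor viability signal. % inhibition relative to DMSO and 10 uM CCT251545 controls, with IC50 from nonlinear regression.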
(In general: Reporter assays use an easily measured gene product as a stand-in for the process of interest.)

Test [2] has as its system CDK8 (phosphorylation of STAT1 at serine 727 in A549 cells). The test is described as follows: Cell based Phospho-STAT1 assay (IFNγ-stimulated A549 cells, AlphaLISA). The settings on record: Homo sapiens, phospho-STAT1 after IFNγ stimulation. An outline of the steps:
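A549 cells given serial compound dilutions for 1 h at 37 °C, then stimulated with IFNγ at 10 ng/mL final for 30 min. Lysate STAT1 Ser727 phosphorylation measured by AlphaLISA; % inhibition vs stimulated/unstimulated DMSO controls, IC50 by nonlinear regression.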
On the technique in general: In Alpha technology, singlet oxygen from a donor bead excites a nearby acceptor bead.

Turning to `N#CC1CC=C(c2nccn3ncc(-c4ccc(Cl)cc4)c23)CC1` (stereo not shown) [Compound P-0090, 4-(3-(4-chlorophenyl)pyrazolo[1,5-a]pyrazin-4-yl)cyclohex-3-ene-1-carbonitrile], the IC50 in test [1] (HCT-116, 24 h) is 0.1 to 100 nM; in test [2] (A549, A549 cells) it was 0.1 to 100 nM.

`CC(C)(O)Cn1ncc2cc(-c3cnn4ccnc(C#CC(C)(C)C(N)=O)c34)ccc21` [Compound P-0091, 4-(3-(1-(2-hydroxy-2-methylpropyl)-1H-indazol-5-yl)pyrazolo[1,5-a]pyrazin-4-yl)-2,2-dimethylbut-3-ynamide]: the IC50 was in the range of 0.1 to 100 nM in test [1] (HCT-116, 24 h) and 0.1 to 100 nM in test [2] (A549, A549 cells).

In the case of `CCCS(=O)(=O)Nc1ccc2cc(-c3cnn4ccnc(C5=CCC(C#N)CC5)c34)ccc2n1` (stereo not shown) [Compound P-0094, N-(6-(4-(4-cyanocyclohex-1-en-1-yl)pyrazolo[1,5-a]pyrazin-3-yl)quinolin-2-yl)propane-1-sulfonamide], the IC50 in test [1] (HCT-116, 24 h) lay within 0.1 to 100 nM; in test [2] (A549, A549 cells) it was 0.1 to 100 nM.

Take `CC(C)(C#Cc1nccn2ncc(-c3ccc4c(cnn4C(F)F)c3)c12)C(N)=O` [Compound P-0095, 4-(3-(1-(difluoromethyl)-1H-indazol-5-yl)pyrazolo[1,5-a]pyrazin-4-yl)-2,2-dimethylbut-3-ynamide]: the half-maximal inhibitory concentration (IC50) lay in the range of 0.1 to 100 nM in test [1] (HCT-116, 24 h) and 0.1 to 100 nM in test [2] (A549, A549 cells).

Take `N#CC1CC=C(c2nccn3ncc(-c4ccc(-c5cnn(CC6(C#N)CC6)c5)cc4)c23)CC1` (stereo not shown) [Compound P-0096, 4-(3-(4-(1-((1-cyanocyclopropyl)methyl)-1H-pyrazol-4-yl)phenyl)pyrazolo[1,5-a]pyrazin-4-yl)cyclohex-3-ene-1-carbonitrile]: the IC50 in test [1] (HCT-116, 24 h) lay in the range of 0.1 to 100 nM; in test [2] (A549, A549 cells) it was 0.1 to 100 nM.

Take `Cc1cc(-c2cnn3ccnc(C4=CCC(C#N)CC4)c23)ccc1C#N` (stereo not shown) [Compound P-0097, 4-(4-(4-cyanocyclohex-1-en-1-yl)pyrazolo[1,5-a]pyrazin-3-yl)-2-methylbenzonitrile]: the IC50 in test [1] (HCT-116, 24 h) fell in the range of 100 to 1000 nM; in test [2] (A549, A549 cells), 0.1 to 100 nM.

With `N#CCCn1cc(-c2ccc(-c3cnn4ccnc(C5CCC(C#N)CC5)c34)cc2)cn1` (stereo not shown) [Compound P-0098, 4-(3-(4-(1-(2-cyanoethyl)-1H-pyrazol-4-yl)phenyl)pyrazolo[1,5-a]pyrazin-4-yl)cyclohexane-1-carbonitrile], the IC50 in test [1] (HCT-116, 24 h) is 0.1 to 100 nM; in test [2] (A549, A549 cells), 0.1 to 100 nM.

On to `CC(C)(C#Cc1nccn2ncc(-c3ccc(N4CCOCC4)c(F)c3)c12)C(N)=O` [Compound P-0099, 4-(3-(3-fluoro-4-morpholinophenyl)pyrazolo[1,5-a]pyrazin-4-yl)-2,2-dimethylbut-3-ynamide], for which the IC50 in test [1] (HCT-116, 24 h) was 100 to 1000 nM; in test [2] (A549, A549 cells) it was 0.1 to 100 nM.

On to `N#CCCn1cc(-c2ccc(-c3cnn4ccnc(C5=CCC(C#N)CC5)c34)cc2)cn1` (stereo not shown) [Compound P-0100, 4-(3-(4-(1-(2-cyanoethyl)-1H-pyrazol-4-yl)phenyl)pyrazolo[1,5-a]pyrazin-4-yl)cyclohex-3-ene-1-carbonitrile], for which the IC50 in test [1] (HCT-116, 24 h) fell in the range of 0.1 to 100 nM; in test [2] (A549, A549 cells) it was 0.1 to 100 nM.

As for `N#CC1CCC(c2nccn3ncc(-c4ccc(N5CCOCC5)c(F)c4)c23)CC1` (stereo not shown) [Compound P-0101, 4-(3-(3-fluoro-4-morpholinophenyl)pyrazolo[1,5-a]pyrazin-4-yl)cyclohexane-1-carbonitrile], the half-maximal inhibitory concentration (IC50) in test [1] (HCT-116, 24 hours) lay within 100 to 1000 nM; in test [2] (A549 cells), 0.1 to 100 nM.

For the compound `N#CC1CC=C(c2nccn3ncc(-c4ccc(N5CCOCC5)c(F)c4)c23)CC1` (stereo not shown) [Compound P-0102, 4-(3-(3-fluoro-4-morpholinophenyl)pyrazolo[1,5-a]pyrazin-4-yl)cyclohex-3-ene-1-carbonitrile], the IC50 in test [1] (HCT-116, 24 h) fell in the range of 0.1 to 100 nM; in test [2] (A549, A549 cells) it was 0.1 to 100 nM.

As to `N#CC1CC=C(c2nccn3ncc(-c4cnn(-c5ccc(F)cc5)c4)c23)CC1` (stereo not shown) [Compound P-0103, 4-(3-(1-(4-fluorophenyl)-1H-pyrazol-4-yl)pyrazolo[1,5-a]pyrazin-4-yl)cyclohex-3-ene-1-carbonitrile], the 50% inhibitory concentration (IC50) lay within 100 to 1000 nM in test [1] (HCT-116, 24 h) and 0.1 to 100 nM in test [2] (A549, A549 cells).

Regarding `COc1ccc(-c2cnn3ccnc(C4=CCC(C#N)CC4)c23)cc1F` (stereo not shown) [Compound P-0104, 4-(3-(3-fluoro-4-methoxyphenyl)pyrazolo[1,5-a]pyrazin-4-yl)cyclohex-3-ene-1-carbonitrile], the IC50 lay within 0.1 to 100 nM in test [1] (HCT-116, 24 h) and 0.1 to 100 nM in test [2] (A549, A549 cells).

On to `N#CC1CC=C(c2nccn3ncc(-c4ccc(C(N)=O)c(F)c4)c23)CC1` (stereo not shown) [Compound P-0105, 4-(4-(4-cyanocyclohex-1-en-1-yl)pyrazolo[1,5-a]pyrazin-3-yl)-2-fluorobenzamide], for which the IC50 in test [1] (HCT-116, 24 h) lay in the range of 100 to 1000 nM; in test [2] (A549, A549 cells), 0.1 to 100 nM.

With `CC(C)(O)Cn1cc2cc(-c3cnn4ccnc(C5=CCC(C#N)CC5)c34)ccc2n1` (stereo not shown) [Compound P-0106, 4-(3-(2-(2-hydroxy-2-methylpropyl)-2H-indazol-5-yl)pyrazolo[1,5-a]pyrazin-4-yl)cyclohex-3-ene-1-carbonitrile], the 50% inhibitory concentration (IC50) in test [1] (HCT-116, 24 h) lay within 100 to 1000 nM; in test [2] (A549, A549 cells), 0.1 to 100 nM.

`N#CC1CCC(c2nccn3ncc(-c4ccc5c(cnn5C5CCCCO5)c4)c23)CC1` (stereo not shown) [Compound P-0109, 4-(3-(1-(tetrahydro-2H-pyran-2-yl)-1H-indazol-5-yl)pyrazolo[1,5-a]pyrazin-4-yl)cyclohexane-1-carbonitrile]: the IC50 in test [1] (HCT-116, 24 h) is 100 to 1000 nM; in test [2] (A549, A549 cells), 0.1 to 100 nM.

As for `CC(C)(O)Cn1cc(-c2ccc(-c3cnn4ccnc(C#CC(C)(C)C(N)=O)c34)cc2)cn1` [Compound P-0110, 4-(3-(4-(1-(2-hydroxy-2-methylpropyl)-1H-pyrazol-4-yl)phenyl)pyrazolo[1,5-a]pyrazin-4-yl)-2,2-dimethylbut-3-ynamide], the IC50 in test [1] (HCT-116, 24 h) lay within 0.1 to 100 nM; in test [2] (A549, A549 cells), 0.1 to 100 nM.

Consider `CC(C)(O)Cn1ncc2cc(-c3cnn4ccnc(C5=CCC(C#N)CC5)c34)ccc21` (stereo not shown) [Compound P-0111, 4-(3-(1-(2-hydroxy-2-methylpropyl)-1H-indazol-5-yl)pyrazolo[1,5-a]pyrazin-4-yl)cyclohex-3-ene-1-carbonitrile], for which the IC50 in test [1] (HCT-116, 24 h) was 0.1 to 100 nM; in test [2] (A549, A549 cells), 0.1 to 100 nM.

With `CC(C)(O)Cn1cc2cc(-c3cnc4[nH]ccc4c3C3=CCC(C#N)CC3)ccc2n1` (stereo not shown) [Compound P-0112, 4-(5-(2-(2-hydroxy-2-methylpropyl)-2H-indazol-5-yl)-1H-pyrrolo[2,3-b]pyridin-4-yl)cyclohex-3-ene-1-carbonitrile], the IC50 in test [1] (HCT-116, 24 h) was 100 to 1000 nM; in test [2] (A549, A549 cells), 0.1 to 100 nM.

For the compound `CC(C)(O)Cn1ncc2cc(-c3cnc4[nH]ccc4c3C3=CCC(C#N)CC3)ccc21` (stereo not shown) [Compound P-0113], the IC50 fell in the range of 0.1 to 100 nM in test [1] (HCT-116, 24 h) and 0.1 to 100 nM in test [2] (A549, A549 cells).

Regarding `N#CC1CC=C(c2nccn3ncc(-c4ccc5c(cnn5C(F)F)c4)c23)CC1` (stereo not shown) [Compound P-0114, 4-(3-(1-(difluoromethyl)-1H-indazol-5-yl)pyrazolo[1,5-a]pyrazin-4-yl)cyclohex-3-ene-1-carbonitrile], the IC50 in test [1] (HCT-116, 24 h) lay in the range of 0.1 to 100 nM; in test [2] (A549, A549 cells) it was 0.1 to 100 nM.

`CC(C)(C#Cc1nccn2ncc(-c3ccc4cc(NS(C)(=O)=O)ccc4c3)c12)C(N)=O` [Compound P-0115, 2,2-dimethyl-4-(3-(6-(methylsulfonamido)naphthalen-2-yl)pyrazolo[1,5-a]pyrazin-4-yl)but-3-ynamide]: the IC50 in test [1] (HCT-116, 24 h) fell in the range of 0.1 to 100 nM; in test [2] (A549, A549 cells), 0.1 to 100 nM.

In the case of `N#CC1CC=C(c2nccn3ncc(-c4ccc(-c5cnn(CC(=O)O)c5)c(F)c4)c23)CC1` (stereo not shown) [Compound P-0116, 2-(4-(4-(4-(4-cyanocyclohex-1-en-1-yl)pyrazolo[1,5-a]pyrazin-3-yl)-2-fluorophenyl)-1H-pyrazol-1-yl)acetic acid], the half-inhibitory concentration (IC50) lay in the range of 100 to 1000 nM in test [1] (HCT-116, 24 h) and 100 to 1000 nM in test [2] (A549, A549 cells).

Consider `COc1ccc2cc(-c3cnn4ccnc(C#CC(C)(C)C(N)=O)c34)ccc2n1` [Compound P-0117, 4-[3-(2-methoxy-6-quinolyl)pyrazolo[1,5-a]pyrazin-4-yl]-2,2-dimethyl-but-3-ynamide], for which the IC50 in test [1] (HCT-116, 24 h) lay in the range of 0.1 to 100 nM; in test [2] (A549, A549 cells) it was 0.1 to 100 nM.

With `Cc1ccc2cc(-c3cnn4ccnc(C#CC(C)(C)C(N)=O)c34)ccc2n1` [Compound P-0118, 2,2-dimethyl-4-(3-(2-methylquinolin-6-yl)pyrazolo[1,5-a]pyrazin-4-yl)but-3-ynamide], the IC50 fell in the range of 0.1 to 100 nM in test [1] (HCT-116, 24 h) and 0.1 to 100 nM in test [2] (A549, A549 cells).

With `N#CC1CC=C(c2cccn3ncc(-c4ccc5cncnc5c4)c23)CC1` (stereo not shown) [Compound P-0119, 4-(3-(quinazolin-7-yl)pyrazolo[1,5-a]pyridin-4-yl)cyclohex-3-ene-1-carbonitrile], the IC50 in test [1] (HCT-116, 24 h) lay in the range of 100 to 1000 nM; in test [2] (A549, A549 cells) it was 0.1 to 100 nM.

Take `N#CC1CC=C(c2cccn3ncc(-c4ccc(CN5CCOCC5)c(F)c4)c23)CC1` (stereo not shown) [Compound P-0120, 4-(3-(3-fluoro-4-(morpholinomethyl)phenyl)pyrazolo[1,5-a]pyridin-4-yl)cyclohex-3-ene-1-carbonitrile]: the IC50 was 100 to 1000 nM in test [1] (HCT-116, 24 h) and 0.1 to 100 nM in test [2] (A549, A549 cells).

As for `N#CC1CC=C(c2cccn3ncc(-c4cc5ccccc5s4)c23)CC1` (stereo not shown) [Compound P-0121, 4-(3-(benzo[b]thiophen-2-yl)pyrazolo[1,5-a]pyridin-4-yl)cyclohex-3-ene-1-carbonitrile], the IC50 in test [1] (HCT-116, 24 h) was in the range of 0.1 to 100 nM; in test [2] (A549, A549 cells), 0.1 to 100 nM.

As to `N#CC1CC=C(c2cccn3ncc(-c4ccc5nccnc5c4)c23)CC1` (stereo not shown) [Compound P-0122, 4-(3-(quinoxalin-6-yl)pyrazolo[1,5-a]pyridin-4-yl)cyclohex-3-ene-1-carbonitrile], the IC50 in test [1] (HCT-116, 24 h) fell in the range of 0.1 to 100 nM; in test [2] (A549, A549 cells), 0.1 to 100 nM.

As a reminder, the IC50 is the concentration needed to halve the response being measured. Low readings indicate inhibition by little substance, high ones a need for much substance.
